From ChEMBL document CHEMBL1949505, “Total synthesis and structure-activity relationships of new echinocandin-like antifungal cyclolipohexapeptides” (2012)
Converted amounts (≈) assume the structure as drawn. Bridge positions count the residues as written; N and C are the ends. Square brackets hold non-standard residues; d marks the D form. Peptide text beside a SMILES is read from it. * marks the point of attachment. pTerphenylCO(4''-OnC5H11) = CCCCCOc1ccc(-c2ccc(-c3ccc(C(=O)*)cc3)cc2)cc1; 2Naphthoyl(6-heptyloxy) = CCCCCCCOc1ccc2cc(C(=O)*)ccc2c1; 2Naphthoyl(6-octyloxy) = CCCCCCCCOc1ccc2cc(C(=O)*)ccc2c1; X2 = CCCCCCCOc1ccc(-c2ccc(-c3ccc(C(=O)*)cc3)cc2)cc1; X1 = CCCOc1ccc(-c2ccc(-c3ccc(C(=O)*)cc3)cc2)cc1; Pro(4S-NH2) = N[C@@H]1CN[C@H](C(=O)O)C1; hTyr = N[C@@H](CCc1ccc(O)cc1)C(=O)O; Orn = NCCC[C@H](N)C(=O)O

Tests used:
Format in all cases: functional
Candida albicans = experiment: Antifungal activity against Candida albicans after 24 hrs by serial dilution method
Candida parapsilosis = experiment: Antifungal activity against Candida parapsilosis after 24 hrs by serial dilution method; conditions: Lodderomyces parapsilosis
Cryptococcus neoformans = experiment: Antifungal activity against Cryptococcus neoformans after 72 hrs by serial dilution method
Pichia kudriavzevii = experiment: Antifungal activity against Candida krusei after 24 hrs by serial dilution method
Aspergillus fumigatus = experiment: Antifungal activity against Aspergillus fumigatus after 7 days by serial dilution method; conditions: 168 h
Candida tropicalis = experiment: Antifungal activity against Candida tropicalis after 24 hrs by serial dilution method
Trichophyton rubrum = experiment: Antifungal activity against Trichophyton rubrum after 7 days by serial dilution method; conditions: 168 h

| SMILES | MIC80 (Candida albicans) | MIC80 (Candida parapsilosis) | MIC80 (Cryptococcus neoformans) | MIC80 (Pichia kudriavzevii) | MIC80 (Aspergillus fumigatus) | MIC80 (Candida tropicalis) | MIC80 (Trichophyton rubrum) |
| --- | --- | --- | --- | --- | --- | --- | --- |
| CCCCCCCOc1ccc2cc(C(=O)N[C@H]3CCCNC(=O)[C@@H]4C[C@H](N)CN4C(=O)[C@H]([C@H](C)O)NC(=O)[C@H](CCc4ccc(O)cc4)NC(=O)[C@@H]4C[C@H](N)CN4C(=O)[C@H]([C@@H](C)O)NC3=O)ccc2c1.Cc1ccc(S(=O)(=O)O)cc1 | 2 µg/mL | 32 µg/mL | > 64 µg/mL | 8 µg/mL | > 64 µg/mL | 64 µg/mL | > 64 µg/mL |
| CCCCCCCCOc1ccc2cc(C(=O)N[C@H]3CCCNC(=O)[C@@H]4C[C@H](N)CN4C(=O)[C@H](CCCCN)NC(=O)[C@H](CCc4ccc(O)cc4)NC(=O)[C@@H]4CCCN4C(=O)[C@H]([C@@H](C)O)NC3=O)ccc2c1.Cc1ccc(S(=O)(=O)O)cc1 ({2Naphthoyl(6-octyloxy)}-[Orn]TP[hTyr]K[Pro(4S-NH2)]; lactam 1-C) | 0.5 µg/mL | 4 µg/mL | 32 µg/mL | 1 µg/mL | 1 µg/mL | 32 µg/mL | 32 µg/mL |
| CCCCCCCOc1ccc2cc(C(=O)N[C@H]3CCCNC(=O)[C@@H]4C[C@H](N)CN4C(=O)[C@H]([C@H](C)O)NC(=O)[C@H](CCc4ccc(O)cc4)NC(=O)[C@@H]4C[C@H](N)CN4C(=O)[C@H](CO)NC3=O)ccc2c1.Cc1ccc(S(=O)(=O)O)cc1 | > 64 µg/mL | 32 µg/mL | > 64 µg/mL | 8 µg/mL | > 64 µg/mL | 32 µg/mL | 64 µg/mL |
| CCCCCCCOc1ccc2cc(C(=O)N[C@H]3CCCNC(=O)[C@@H]4C[C@H](N)CN4C(=O)[C@H](CCCN)NC(=O)[C@H](CCc4ccc(O)cc4)NC(=O)[C@@H]4CCCN4C(=O)[C@H]([C@@H](C)O)NC3=O)ccc2c1.Cc1ccc(S(=O)(=O)O)cc1 ({2Naphthoyl(6-heptyloxy)}-[Orn]TP[hTyr][Orn][Pro(4S-NH2)]; lactam 1-C) | 0.25 µg/mL | 4 µg/mL | 32 µg/mL | 1 µg/mL | 1 µg/mL | 32 µg/mL | 32 µg/mL |
| CCCCCCCCOc1ccc2cc(C(=O)N[C@H]3CCCNC(=O)[C@@H]4C[C@H](N)CN4C(=O)[C@H]([C@H](C)O)NC(=O)[C@H](CCc4ccc(O)cc4)NC(=O)[C@@H]4C[C@H](N)CN4C(=O)[C@H]([C@@H](C)O)NC3=O)ccc2c1.Cc1ccc(S(=O)(=O)O)cc1 | 2 µg/mL | 32 µg/mL | > 64 µg/mL | 8 µg/mL | > 64 µg/mL | 32 µg/mL | > 64 µg/mL |
| CCCCCCCCOc1ccc2cc(C(=O)N[C@H]3CCCNC(=O)[C@@H]4C[C@H](N)CN4C(=O)[C@H](CCCCN)NC(=O)[C@H](CCc4ccc(O)cc4)NC(=O)[C@@H]4CCCN4C(=O)[C@H](C(C)C)NC3=O)ccc2c1.Cc1ccc(S(=O)(=O)O)cc1 ({2Naphthoyl(6-octyloxy)}-[Orn]VP[hTyr]K[Pro(4S-NH2)]; lactam 1-C) | 1 µg/mL | 4 µg/mL | 32 µg/mL | 2 µg/mL | 1 µg/mL | 32 µg/mL | 32 µg/mL |
| CC[C@H](C)C[C@H](C)CCCCCCCCC(=O)N[C@H]1C[C@@H](O)[C@@H](NCCN)NC(=O)[C@@H]2[C@@H](O)CCN2C(=O)[C@H]([C@H](O)CCN)NC(=O)[C@H]([C@H](O)[C@@H](O)c2ccc(O)cc2)NC(=O)[C@@H]2C[C@@H](O)CN2C(=O)[C@H]([C@@H](C)O)NC1=O [CASPOFUNGIN] | 0.5 µg/mL (≈ 0.457 µM) | 1 µg/mL (≈ 0.915 µM) | 16 µg/mL (≈ 14.6 µM) | 0.25 µg/mL (≈ 0.229 µM) | 1 µg/mL (≈ 0.915 µM) | 4 µg/mL (≈ 3.66 µM) | 16 µg/mL (≈ 14.6 µM) |
| CCCCCCOc1ccc2cc(C(=O)N[C@H]3CCCNC(=O)[C@@H]4C[C@H](N)CN4C(=O)[C@H]([C@H](C)O)NC(=O)[C@H](CCc4ccc(O)cc4)NC(=O)[C@@H]4C[C@H](N)CN4C(=O)[C@H]([C@@H](C)O)NC3=O)ccc2c1.Cc1ccc(S(=O)(=O)O)cc1 | 2 µg/mL | 32 µg/mL | > 64 µg/mL | 2 µg/mL | > 64 µg/mL | 64 µg/mL | > 64 µg/mL |
| CCCCCOc1ccc2cc(C(=O)N[C@H]3CCCNC(=O)[C@@H]4C[C@H](N)CN4C(=O)[C@H]([C@H](C)O)NC(=O)[C@H](CCc4ccc(O)cc4)NC(=O)[C@@H]4C[C@H](N)CN4C(=O)[C@H]([C@@H](C)O)NC3=O)ccc2c1.Cc1ccc(S(=O)(=O)O)cc1 | 2 µg/mL | 32 µg/mL | > 64 µg/mL | 8 µg/mL | > 64 µg/mL | > 64 µg/mL | > 64 µg/mL |

Results, then the compound that gave them:

| MIC80 (Candida albicans) | MIC80 (Candida parapsilosis) | MIC80 (Cryptococcus neoformans) | MIC80 (Pichia kudriavzevii) | MIC80 (Aspergillus fumigatus) | MIC80 (Candida tropicalis) | MIC80 (Trichophyton rubrum) | SMILES |
| --- | --- | --- | --- | --- | --- | --- | --- |
| 1 µg/mL | 4 µg/mL | 32 µg/mL | 2 µg/mL | 1 µg/mL | 16 µg/mL | 16 µg/mL | CCCCCCCOc1ccc(-c2ccc(-c3ccc(C(=O)N[C@H]4CCCNC(=O)[C@@H]5C[C@H](N)CN5C(=O)[C@H](CCCCN)NC(=O)[C@H](CCc5ccc(O)cc5)NC(=O)[C@@H]5CCCN5C(=O)[C@H](C(C)C)NC4=O)cc3)cc2)cc1.Cc1ccc(S(=O)(=O)O)cc1 (X2-[Orn]VP[hTyr]K[Pro(4S-NH2)]; lactam 1-C) |
| 1 µg/mL | 4 µg/mL | 32 µg/mL | 2 µg/mL | 1 µg/mL | 16 µg/mL | 32 µg/mL | CCCCCOc1ccc(-c2ccc(-c3ccc(C(=O)N[C@H]4CCCNC(=O)[C@@H]5C[C@H](N)CN5C(=O)[C@H](CCCCN)NC(=O)[C@H](CCc5ccc(O)cc5)NC(=O)[C@@H]5CCCN5C(=O)[C@H](C(C)C)NC4=O)cc3)cc2)cc1.Cc1ccc(S(=O)(=O)O)cc1 ({pTerphenylCO(4''-OnC5H11)}-[Orn]VP[hTyr]K[Pro(4S-NH2)]; lactam 1-C) |
| 0.25 µg/mL | 8 µg/mL | 64 µg/mL | 0.5 µg/mL | 1 µg/mL | 4 µg/mL | 64 µg/mL | CCCCCOc1ccc(-c2ccc(-c3ccc(C(=O)N[C@H]4CCCNC(=O)[C@@H]5C[C@H](N)CN5C(=O)[C@H](CCCN)NC(=O)[C@H](CCc5ccc(O)cc5)NC(=O)[C@@H]5CCCN5C(=O)[C@H]([C@@H](C)O)NC4=O)cc3)cc2)cc1.Cc1ccc(S(=O)(=O)O)cc1 ({pTerphenylCO(4''-OnC5H11)}-[Orn]TP[hTyr][Orn][Pro(4S-NH2)]; lactam 1-C) |
| 1 µg/mL | 4 µg/mL | 32 µg/mL | 2 µg/mL | 0.5 µg/mL | 8 µg/mL | 32 µg/mL | CCCCCOc1ccc(-c2ccc(-c3ccc(C(=O)N[C@H]4CCCNC(=O)[C@@H]5C[C@H](N)CN5C(=O)[C@H](CCCN)NC(=O)[C@H](CCc5ccc(O)cc5)NC(=O)[C@@H]5CCCN5C(=O)[C@H](C(C)C)NC4=O)cc3)cc2)cc1.Cc1ccc(S(=O)(=O)O)cc1 ({pTerphenylCO(4''-OnC5H11)}-[Orn]VP[hTyr][Orn][Pro(4S-NH2)]; lactam 1-C) |
| 0.5 µg/mL | 4 µg/mL | 32 µg/mL | 2 µg/mL | 0.25 µg/mL | 16 µg/mL | 16 µg/mL | CCCOc1ccc(-c2ccc(-c3ccc(C(=O)N[C@H]4CCCNC(=O)[C@@H]5C[C@H](N)CN5C(=O)[C@H](CCCCN)NC(=O)[C@H](CCc5ccc(O)cc5)NC(=O)[C@@H]5CCCN5C(=O)[C@H](C(C)C)NC4=O)cc3)cc2)cc1.Cc1ccc(S(=O)(=O)O)cc1 (X1-[Orn]VP[hTyr]K[Pro(4S-NH2)]; lactam 1-C) |
| 0.5 µg/mL | 4 µg/mL | 32 µg/mL | 2 µg/mL | 1 µg/mL | 32 µg/mL | 32 µg/mL | CCCCCCCOc1ccc2cc(C(=O)N[C@H]3CCCNC(=O)[C@@H]4C[C@H](N)CN4C(=O)[C@H](CCCCN)NC(=O)[C@H](CCc4ccc(O)cc4)NC(=O)[C@@H]4CCCN4C(=O)[C@H](C(C)C)NC3=O)ccc2c1.Cc1ccc(S(=O)(=O)O)cc1 ({2Naphthoyl(6-heptyloxy)}-[Orn]VP[hTyr]K[Pro(4S-NH2)]; lactam 1-C) |
| 1 µg/mL | 4 µg/mL | 32 µg/mL | 2 µg/mL | 0.5 µg/mL | 32 µg/mL | 32 µg/mL | CCCCCCCOc1ccc2cc(C(=O)N[C@H]3CCCNC(=O)[C@@H]4C[C@H](N)CN4C(=O)[C@H](CCCN)NC(=O)[C@H](CCc4ccc(O)cc4)NC(=O)[C@@H]4CCCN4C(=O)[C@H](C(C)C)NC3=O)ccc2c1.Cc1ccc(S(=O)(=O)O)cc1 ({2Naphthoyl(6-heptyloxy)}-[Orn]VP[hTyr][Orn][Pro(4S-NH2)]; lactam 1-C) |
| 0.5 µg/mL | 2 µg/mL | 16 µg/mL | 1 µg/mL | 1 µg/mL | 8 µg/mL | 32 µg/mL | CCCCCOc1ccc(-c2ccc(-c3ccc(C(=O)N[C@H]4CCCNC(=O)[C@@H]5C[C@H](N)CN5C(=O)[C@H](CCCCN)NC(=O)[C@H](CCc5ccc(O)cc5)NC(=O)[C@@H]5CCCN5C(=O)[C@H]([C@@H](C)O)NC4=O)cc3)cc2)cc1.Cc1ccc(S(=O)(=O)O)cc1 ({pTerphenylCO(4''-OnC5H11)}-[Orn]TP[hTyr]K[Pro(4S-NH2)]; lactam 1-C) |
| 0.5 µg/mL | 4 µg/mL | 32 µg/mL | 2 µg/mL | 0.5 µg/mL | 8 µg/mL | 16 µg/mL | CCCOc1ccc(-c2ccc(-c3ccc(C(=O)N[C@H]4CCCNC(=O)[C@@H]5C[C@H](N)CN5C(=O)[C@H](CCCN)NC(=O)[C@H](CCc5ccc(O)cc5)NC(=O)[C@@H]5CCCN5C(=O)[C@H](C(C)C)NC4=O)cc3)cc2)cc1.Cc1ccc(S(=O)(=O)O)cc1 (X1-[Orn]VP[hTyr][Orn][Pro(4S-NH2)]; lactam 1-C) |
